Test results taken from US9783532B2, “Molecules having certain pesticidal utilities, and intermediates, compositions, and processes related thereto” (Dow AgroSciences LLC, priority 2013, dated 2017).
Where two headings read alike, the source gives them in different places.

Legend:
[1] = test system: Cabbage Looper (Trichoplusia ni) ("CL"); assay: Bioassay on cabbage looper (CL), 128-well diet tray assay; assay type: in vivo; details: for mortality at 50 µg/cm2: 168 h, 50 μg/cm^2 on artificial diet, second instar CL larvae, 25° C., five to seven days, average of eight wells, read-out: CL % Control (or Mortality) rating; for pest or weed control at 50 µg/cm2: activity rating class, read-out: CL (Biological Results, Insect species)
Method: (§1) Certain molecules disclosed in this document were tested against BAW and CEW using procedures described in the following examples. In the reporting of the results, the “BAW & CL Rating Table” was used (See Table Section). BIOASSAYS ON BAW
Bioassays on CL were conducted using a 128-well diet tray assay. one to five second instar CL larvae were placed in each well (3 mL) of the diet tray that had been previously filled with 1 mL of artificial diet to which 50 μg/cm^2 of the test compound (dissolved in 50 μL of 90:10 acetone-water mixture) had been applied (to each of eight wells) and then allowed to dry. Trays were covered with a clear self-adhesive cover and held at 25° C., 14:10 light-dark for five to seven days. Percent mortality was recorded for the larvae in each well; activity in the eight wells was then averaged. The results are indicated in the table entitled “Table ABC: Biological Results” (See Table Section).

[2] = test system: Beet Armyworm (Spodoptera exigua) ("BAW"); assay: Bioassay on beet armyworm (BAW), 128-well diet tray assay; assay type: in vivo; details: for mortality at 50 µg/cm2: 168 h, 50 μg/cm^2 on artificial diet, second instar BAW larvae, 25° C., five to seven days, average of eight wells, read-out: BAW % Control (or Mortality) rating; for pest or weed control at 50 µg/cm2: activity rating class, read-out: BAW (Biological Results, Insect species)
Method: as §1
Bioassays on BAW were conducted using a 128-well diet tray assay. one to five second instar BAW larvae were placed in each well (3 mL) of the diet tray that had been previously filled with 1 mL of artificial diet to which 50 μg/cm^2 of the test compound (dissolved in 50 μL of 90:10 acetone-water mixture) had been applied (to each of eight wells) and then allowed to dry. Trays were covered with a clear self-adhesive cover and held at 25° C., 14:10 light-dark for five to seven days. Percent mortality was recorded for the larvae in each well; activity in the eight wells was then averaged. The results are indicated in the table entitled “Table ABC: Biological Results” (See Table Section).

Which results are given for `CC(Cc1ccc(-c2ncn(-c3ccc(OC(F)(F)F)cc3)n2)cc1)NC(=O)NC(=S)Nc1ccccc1C(C)C` (stereo not drawn) [F4, N-[2-(propan-2-yl)phenyl]-N′-[1-(4-{1-[4-(trifluoromethoxy)phenyl]-1H-1,2,4-triazol-3-yl}phenyl)propan-2-yl]dicarbonimidothioic diamide]?
mortality at 50 µg/cm2 [1]: 50 to 100%; mortality at 50 µg/cm2 [2]: 50 to 100%

How did the mortality at 50 µg/cm2 [1] turn out when `CC(C)c1ccccc1NC(=S)NC(=O)NCc1ccc(-c2ncn(-c3ccc(OC(F)(F)C(F)(F)F)cc3)n2)cc1` [F15, N-(4-{1-[4-(pentafluoroethoxy)phenyl]-1H-1,2,4-triazol-3-yl}benzyl)-N′-[2-(propan-2-yl)phenyl]dicarbonimidothioic diamide] was run?
Its mortality at 50 µg/cm2 is 50 to 100%.

What about the mortality at 50 µg/cm2 [2] of the same compound?
Its mortality at 50 µg/cm2 is 50 to 100%.

How did the mortality at 50 µg/cm2 [1] turn out when `Cc1ccc(C(C)C)c(NC(=S)NC(=O)NCc2ccc(-c3ncn(-c4ccc(OC(F)(F)C(F)(F)F)cc4)n3)cc2)c1` [F16] was run?
Its mortality at 50 µg/cm2 is 50 to 100%.

What about the mortality at 50 µg/cm2 [2] of the same compound?
Its mortality at 50 µg/cm2 is 50 to 100%.

For `CC(C)c1ccccc1N1C(=O)CS/C1=N\C(=O)NCc1ccc(-c2ncn(-c3ccc(OC(F)(F)F)cc3)n2)cc1` [F17, (Z)-1-(3-(2-isopropylphenyl)-4-oxothiazolidin-2-ylidene)-3-(4-(1-(4-(trifluoromethoxy)phenyl)-1H-1,2,4-triazol-3-yl)benzyl)urea], which mortality at 50 µg/cm2 [1] is on record?
The mortality at 50 µg/cm2 was 50 to 100%.

And the mortality at 50 µg/cm2 [2]?
Its mortality at 50 µg/cm2 is 50 to 100%.

For `CC(C)c1ccccc1N1C(=O)CS/C1=N\C(=O)NCc1ccc(-c2ncn(-c3ccc(OC(F)(F)C(F)(F)F)cc3)n2)cc1` [F18, (Z)-1-(3-(2-isopropylphenyl)-4-oxothiazolidin-2-ylidene)-3-(4-(1-(4-(perfluoroethoxy)phenyl)-1H-1,2,4-triazol-3-yl)benzyl)urea], which mortality at 50 µg/cm2 [1] is on record?
Its mortality at 50 µg/cm2 is 50 to 100%.

What about the mortality at 50 µg/cm2 [2] of the same compound?
The mortality at 50 µg/cm2 was 50 to 100%.

Which mortality at 50 µg/cm2 [1] does the source give for `Cc1ccc(C(C)C)c(N2C(=O)CS/C2=N\C(=O)NCc2ccc(-c3ncn(-c4ccc(OC(F)(F)C(F)(F)F)cc4)n3)cc2)c1` [F19, (Z)-1-(3-(2-isopropyl-5-methylphenyl)-4-oxothiazolidin-2-ylidene)-3-(4-(1-(4-(perfluoroethoxy)phenyl)-1H-1,2,4-triazol-3-yl)benzyl)urea] here?
Its mortality at 50 µg/cm2 is 50 to 100%.

And the mortality at 50 µg/cm2 [2]?
Its mortality at 50 µg/cm2 is 50 to 100%.

With `COc1ccc(NC(=S)NC(=O)NC2CC2c2ccc(-c3ncn(-c4ccc(OC(F)(F)F)cc4)n3)cc2)c(C)c1` (stereo not drawn) [F26] as the compound, how does the mortality at 50 µg/cm2 [1] read?
The mortality at 50 µg/cm2 was 50 to 100%.

What about the mortality at 50 µg/cm2 [2] of the same compound?
The mortality at 50 µg/cm2 was 50 to 100%.

`Cc1ccc(C(C)C)c(NC(=S)NC(=O)NCc2ccc(-c3ncn(-c4ccc(OC(F)(F)F)cc4)n3)cc2)c1` [F35] was tested. Which mortality at 50 µg/cm2 [2] did it give?
The mortality at 50 µg/cm2 was 50 to 100%.

`Cc1ccc(C(C)C)c(NC(=S)NC(=O)NCCc2ccc(-c3ncn(-c4ccc(OC(F)(F)F)cc4)n3)cc2C)c1` [FB1, 1-[(2-isopropyl-5-methyl-phenyl)carbamothioyl]-3-[2-[2-methyl-4-[1-[4-(trifluoromethoxy)phenyl]-1H-1,2,4-triazol-3-yl]phenyl]ethyl]urea] was tested. Which pest or weed control at 50 µg/cm2 ([1]; Table ABC (FB)) did it give?
The pest or weed control at 50 µg/cm2 was 50 to 100%.

And the pest or weed control at 50 µg/cm2 ([2]; Table ABC (FB))?
The pest or weed control at 50 µg/cm2 was 50 to 100%.

With `COc1ccc(C(C)C)c(NC(=S)NC(=O)NCCc2ccc(-c3ncn(-c4ccc(OC(F)(F)F)cc4)n3)cc2C)c1` [FB2] as the compound, how does the pest or weed control at 50 µg/cm2 ([1]; Table ABC (FB)) read?
The pest or weed control at 50 µg/cm2 was 50 to 100%.

What about the pest or weed control at 50 µg/cm2 ([2]; Table ABC (FB)) of the same compound?
Its pest or weed control at 50 µg/cm2 is 50 to 100%.

How did the pest or weed control at 50 µg/cm2 ([1]; Table ABC (FB)) turn out when `Cc1ccc(C(C)C)c(N2C(=O)CS/C2=N\C(=O)NCCc2ccc(-c3ncn(-c4ccc(OC(F)(F)F)cc4)n3)cc2C)c1` [FB3, (Z)-1-(3-(2-isopropyl-5-methylphenyl)-4-oxothiazolidin-2-ylidene)-3-(2-methyl-4-(1-(4-(trifluoromethoxy)phenyl)-1H-1,2,4-triazol-3-yl)phenethyl)urea] was run?
Its pest or weed control at 50 µg/cm2 is 50 to 100%.

And the pest or weed control at 50 µg/cm2 ([2]; Table ABC (FB))?
Its pest or weed control at 50 µg/cm2 is 50 to 100%.

Which pest or weed control at 50 µg/cm2 ([1]; Table ABC (FB)) does the source give for `COc1ccc(C(C)C)c(N2C(=O)CS/C2=N\C(=O)NCCc2ccc(-c3ncn(-c4ccc(OC(F)(F)F)cc4)n3)cc2C)c1` [FB4, (Z)-1-(3-(2-isopropyl-5-methoxyphenyl)-4-oxothiazolidin-2-ylidene)-3-(2-methyl-4-(1-(4-(trifluoromethoxy)phenyl)-1H-1,2,4-triazol-3-yl)phenethyl)urea] here?
The pest or weed control at 50 µg/cm2 was 50 to 100%.

What about the pest or weed control at 50 µg/cm2 ([2]; Table ABC (FB)) of the same compound?
Its pest or weed control at 50 µg/cm2 is 50 to 100%.

Which pest or weed control at 50 µg/cm2 ([1]; Table ABC (FB)) does the source give for `Cc1ccc(NC(=S)NC(=O)NCCCCc2ccc(-c3ncn(-c4ccc(OC(F)(F)F)cc4)n3)cc2)c(C)c1` [FB16, 1-[(2,4-dimethylphenyl)carbamothioyl]-3-[4-[4-[1-[4-(trifluoromethoxy)phenyl]-1H-1,2,4-triazol-3-yl]phenyl]butyl]urea] here?
The pest or weed control at 50 µg/cm2 was 50 to 100%.

With `Cc1ccc(-n2c(C)cs/c2=N\C(=O)NCc2ccc(-c3ncn(-c4ccc(OC(F)(F)F)cc4)n3)cc2)c(C(C)C)c1` [P20, (Z)-1-(3-(2-isopropyl-4-methylphenyl)-4-methylthiazol-2(3H)-ylidene)-3-(4-(1-(4-(trifluoromethoxy)phenyl)-1H-1,2,4-triazol-3-yl)benzyl)urea] as the compound, how does the mortality at 50 µg/cm2 [1] read?
Its mortality at 50 µg/cm2 is 50 to 100%.

With `Cc1ccc(C(C)C)c(N2C(=O)CS/C2=N\C(=O)NCCc2cccc(-c3ncn(-c4ccc(OC(F)(F)F)cc4)n3)c2)c1` [P81] as the compound, how does the mortality at 50 µg/cm2 [1] read?
Its mortality at 50 µg/cm2 is 50 to 100%.

With `COc1ccc(NC(=S)NC(=O)NCCc2cccc(-c3ncn(-c4ccc(OC(F)(F)F)cc4)n3)c2)c(C)c1` [PC87, 1-[(4-methoxy-2-methyl-phenyl)carbamothioyl]-3-[2-[3-[1-[4-(trifluoromethoxy)phenyl]-1H-1,2,4-triazol-3-yl]phenyl]ethyl]urea] as the compound, how does the pest or weed control at 50 µg/cm2 ([1]; Table ABC (PC)) read?
The pest or weed control at 50 µg/cm2 was 50 to 100%.

`CCCc1ccc(C)cc1NC(=S)NC(=O)NCCCc1ccc(-c2ncn(-c3ccc(OC(F)(F)F)cc3)n2)cc1` [PC99, 1-[(5-methyl-2-propyl-phenyl)carbamothioyl]-3-[3-[4-[1-[4-(trifluoromethoxy)phenyl]-1H-1,2,4-triazol-3-yl]phenyl]propyl]urea] was tested. Which pest or weed control at 50 µg/cm2 ([2]; Table ABC (PC)) did it give?
The pest or weed control at 50 µg/cm2 was 50 to 100%.

For `Cc1ccc(NC(=S)NC(=O)NCCCc2ccc(-c3ncn(-c4ccc(OC(F)(F)F)cc4)n3)cc2)c(C(C)C)c1` [PC102, 1-[(2-isopropyl-4-methyl-phenyl)carbamothioyl]-3-[3-[4-[1-[4-(trifluoromethoxy)phenyl]-1H-1,2,4-triazol-3-yl]phenyl]propyl]urea], which pest or weed control at 50 µg/cm2 ([2]; Table ABC (PC)) is on record?
Its pest or weed control at 50 µg/cm2 is 50 to 100%.

`CC(C)c1cc(F)ccc1NC(=S)NC(=O)NCCCc1ccc(-c2ncn(-c3ccc(OC(F)(F)F)cc3)n2)cc1` [PC103, 1-[(4-fluoro-2-isopropyl-phenyl)carbamothioyl]-3-[3-[4-[1-[4-(trifluoromethoxy)phenyl]-1H-1,2,4-triazol-3-yl]phenyl]propyl]urea] was tested. Which pest or weed control at 50 µg/cm2 ([2]; Table ABC (PC)) did it give?
The pest or weed control at 50 µg/cm2 was 0 to 50%.

For `Cc1ccc(NC(=S)NC(=O)NCCCCc2cccc(-c3ncn(-c4ccc(OC(F)(F)F)cc4)n3)c2)c(C(C)C)c1` [PC180, 1-[(2-isopropyl-4-methyl-phenyl)carbamothioyl]-3-[4-[3-[1-[4-(trifluoromethoxy)phenyl]-1H-1,2,4-triazol-3-yl]phenyl]butyl]urea], which pest or weed control at 50 µg/cm2 ([2]; Table ABC (PC)) is on record?
The pest or weed control at 50 µg/cm2 was 0 to 50%.

Which pest or weed control at 50 µg/cm2 ([2]; Table ABC (PC)) does the source give for `CC(C)c1cc(F)ccc1NC(=S)NC(=O)NCCCCc1cccc(-c2ncn(-c3ccc(OC(F)(F)F)cc3)n2)c1` [PC181, 1-[(4-fluoro-2-isopropyl-phenyl)carbamothioyl]-3-[4-[3-[1-[4-(trifluoromethoxy)phenyl]-1H-1,2,4-triazol-3-yl]phenyl]butyl]urea] here?
Its pest or weed control at 50 µg/cm2 is 0 to 50%.

Which pest or weed control at 50 µg/cm2 ([1]; Table ABC (PC)) does the source give for `COc1ccc(C(C)C)c(NC(=S)NC(=O)NCCCCc2cccc(-c3ncn(-c4ccc(OC(F)(F)F)cc4)n3)c2)c1` [PC182, 1-[(2-isopropyl-5-methoxy-phenyl)carbamothioyl]-3-[4-[3-[1-[4-(trifluoromethoxy)phenyl]-1H-1,2,4-triazol-3-yl]phenyl]butyl]urea] here?
Its pest or weed control at 50 µg/cm2 is 50 to 100%.
